Test [1] concerns the target T1, RuCu-SLAC (remolded laccase) (Streptomyces coelicolor, UniProt Q9XAL8).
T1 construct: gene SCO6712; artificial metalloenzyme: same apo-SLAC polypeptide (E. coli BL21(DE3), N-terminal GST tag cut off by PPase) loaded with Ru3+ then Cu2+; homodimer with one Ru and three Cu; Ru-Cu binuclear centre replaces the Cu trinuclear cluster
T1 sequence (Q9XAL8 34-343): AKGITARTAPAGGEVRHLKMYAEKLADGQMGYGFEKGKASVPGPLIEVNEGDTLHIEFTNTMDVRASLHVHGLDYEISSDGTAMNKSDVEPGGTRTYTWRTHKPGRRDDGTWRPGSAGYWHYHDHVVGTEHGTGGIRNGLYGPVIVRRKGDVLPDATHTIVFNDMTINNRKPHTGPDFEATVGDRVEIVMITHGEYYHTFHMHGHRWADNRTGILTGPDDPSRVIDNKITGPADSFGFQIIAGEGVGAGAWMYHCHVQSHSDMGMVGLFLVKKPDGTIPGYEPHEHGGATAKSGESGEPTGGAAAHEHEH
In words: UV-vis quinone formation at […] nm. It is filed as biochemical. The conditions noted are these: 50 mM sodium phosphate, O2 as co-substrate, pH 6.0 to 8.0 (pH series); Ru-Cu artificial metal centre; T1 Cu quantified at 590 nm.

Test [2] deals with T2, native SLAC (bacterial small laccase) (Streptomyces coelicolor, UniProt Q9XAL8).
T2 construct: gene SCO6712; reconstituted with CuCl2 (T1 Cu and T2/T3 Cu trinuclear cluster); trimer
T2 sequence (Q9XAL8 34-343): T1 sequence (Q9XAL8 34-343)
In words: UV-vis quinone formation at […] nm. It is filed as biochemical. The conditions noted are these: 50 mM sodium phosphate, O2 as co-substrate, pH 6.0 to 8.0 (pH series); native Cu-reconstituted enzyme; T1 Cu quantified at 590 nm.

For `NCCc1ccc(O)c(O)c1` [dopamine], the Michaelis-Menten constants entry in test [1] was “Michaelis-Menten constants and Kcat (turnover number) of both enzymes with a dopamine substrate”; in test [2], “Michaelis-Menten constants and Kcat (turnover number) of both enzymes with a dopamine substrate”.

These data come from article PMC12542965, “Remolding laccase for whole-cell and in vivo modulation of dopamine signal” (Science Advances, 2025).
